From publication PMC3634028, “Novel α-MSH Peptide Analogues with Broad Spectrum Antimicrobial Activity” (PLoS ONE, 2013)
In brackets after ≈: the same amount, converted by molar mass. Where a SMILES comes first, the peptide text is derived from it.

Key:
C. glabrata = assay type: cell-based, Candida glabrata; conditions: 48 h
Protocol: (§1) Two Candida albicans isolates were purchased from the ATCC (No. 24433 and 76615). The other yeast isolates were obtained from the collection of Fondazione Ca' Granda- Ospedale Maggiore Policlinico, Milano. The collection included C. albicans (7 isolates), C. glabrata (3 isolates), and C. krusei (3 isolates). Antifungal susceptibility testing was performed using the broth microdilution method according to the NCCLS M27-A guidelines (National Committee for Clinical Laboratory Standards. 1997, Reference method for broth dilution antifungal susceptibility testing of yeasts and approved standard NCCLS document M27-A. National Committee for Clinical Laboratory Standards, Wayne, Pa.). […] After 48 h of incubation, the plates were inspected for purity. A colony was taken from the agar plate and transferred into 5 mL Sabouraud-dextrose broth and incubated for 48 h at 35°C. Cells were centrifuged at 1,000× g for 10 min and the pellet was washed twice with distilled water. Cells were counted and suspended in RPMI 1640 medium buffered to pH 7.0 with 0.165 mol l^−1 morpholinepropanesulphonic acid (MOPS) buffer (Sigma) to obtain the two times test inoculum (1×10^3 to 5×10^3 CFU/mL). […] The MIC90, i.e. the minimum inhibitory concentrations endpoint were determined as 90% reduction in turbidity measured using a spectrophotometer (Titertek multiscan at 690 nm wave length).

C. krusei = assay type: cell-based, Candida krusei; conditions: 48 h
Protocol: as §1

[1] = tested on: Candida strains (C. albicans, C. glabrata, C. krusei); experiment: Anti-Candida assay, overall result in words; assay type: cell-based, Candida spp; conditions: standard culture conditions, broth culture medium
Protocol: as §1

C. albicans = assay type: cell-based, Candida albicans; conditions: 48 h
Protocol: as §1

[2] = tested on: Acinetobacter baumani ATCC 19606; assay type: cell-based; conditions: ATCC 19606, 18 h
Protocol: (§2) The strains used for the antimicrobial assays were the Gram-negative bacteria Acinetobacter baumani ATCC 19606, Escherichia coli D21, Pseudomonas aeruginosa ATCC 27853, and Pseudomonas syringae pv tabaci 1918NCPPB and the Gram-positive bacteria Bacillus megaterium Bm11, Staphylococcus aureus ATCC 25923, and Staphylococcus epidermidis ATCC 12228. Susceptibility testing was performed by adapting the microbroth dilution method outlined by the Clinical and Laboratory Standards Institute, using sterile 96-well plates (Falcon NJ, USA). The bacterial growth was aseptically measured by absorbance at 590 nm with a spectrophotometer (UV-1700 Pharma Spec Shimadzu, Tokyo, Japan). Afterwards, aliquots (50 µl) of bacteria in mid-log phase at a concentration of 2×10^6 colony-forming units (CFU)/mL in culture medium (Mueller-Hinton, MH) were added to 50 µl of MH broth containing the peptide in serial 2-fold dilutions ranging from 1.56 to 100 µM. Inhibition of microbial growth was determined by measuring the absorbance at 590 nm, after an incubation of 18 h at 37°C with a microplate reader (Infinite M200; Tecan, Salzburg, Austria).

Bacillus megaterium Bm11 = assay type: cell-based; conditions: Bacillus Bm11, 18 h
Protocol: as §2

Escherichia coli D21 = assay type: cell-based; conditions: D21, 18 h
Protocol: as §2

[3] = tested on: Pseudomonas aeruginosa ATCC 27853; assay type: cell-based; conditions: ATCC 27853, 18 h
Protocol: as §2

[4] = tested on: Pseudomonas syringae pv tabaci 1918NCPPB; assay type: cell-based; conditions: 18 h
Protocol: as §2

[5] = tested on: Staphylococcus aureus ATCC 25923; assay type: cell-based; conditions: ATCC 25923, 18 h
Protocol: as §2

[6] = tested on: Staphylococcus epidermidis ATCC 12228; assay type: cell-based; conditions: ATCC 12228, 18 h
Protocol: as §2

[7] = tested on: HaCaT keratinocyte cell line; experiment: Cytotoxic activity, MTT colorimetric method; assay type: cell-based, human; conditions: highest peptide concentration used (100 µM), 24 h
Protocol: Effects on viability was tested in the immortalised keratinocyte cell line HaCaT using the [3(4,5-dimethylthiazol-2yl)2,5-diphenyltetrazolium bromide] (MTT) colorimetric method in which the intensity of the dye is proportional to the number of viable cells. MTT is a tetrazolium salt which is reduced to a colored formazan product by mitochondrial reductases present only in metabolically active cells. Cells were cultured in Dulbecco's modified Eagle's medium (DMEM; Sigma) supplemented with 10% heat inactivated fetal bovine serum, glutamine (4 mM) and gentamicin. Afterwards, cells were plated in triplicate wells of a microtiter plate, at 4×10^4 cells/well in DMEM supplemented with 2% serum without antibiotic. After overnight incubation at 37°C in a 5% CO2 atmosphere, the medium was replaced with […] fresh DMEM supplemented with the peptides at different concentrations. The plate was incubated for 24 h at 37°C in a 5% CO2 atmosphere. Then, DMEM was removed and replaced with Hank's medium (136 mM NaCl; 4.2 mM Na2HPO4; 4.4 mM KH2PO4; 5.4 mM KCl; 4.1 mM NaHCO3, pH 7.2, supplemented with 20 mM D-glucose) containing 0.5 mg/ml MTT. After 4 h incubation, the formazan crystals were dissolved by adding 100 µl of acidified isopropanol and absorption of each well was measured using a microplate reader (Infinite M200; Tecan, Salzburg, Austria) at 570 nm. Cell viability was e expressed as percentage of viability in control cells (cells not treated with peptide).
Figure 1 Effects of the synthetic melanocortins on viability of HaCat cells. Cells were plated in wells of a microtiter plate, at 4×10^4 cells/well in DMEM supplemented with 2% serum without antibiotic. After overnight incubation at 37°C in a 5% CO2 atmosphere, the medium was replaced with 100 µl fresh DMEM supplemented with the peptides at different concentrations. […] Cell viability is expressed as percentage of viability in control cells (cells not treated with the peptide).

| Compound | MIC 90 (C. glabrata) [µM] | MIC 90 (C. krusei) [µM] | MIC 90 (C. albicans) [µM] | antimicrobial / anti-Candida activity (in words) [1] | further results |
| --- | --- | --- | --- | --- | --- |
| CC(C)[C@H](NC(=O)[C@H](Cc1ccccc1)NC(=O)[C@H](CCCCN)NC(=O)C(C)(C)NC(=O)[C@H](Cc1c[nH]c2ccccc12)NC(=O)[C@H](CCCNC(=N)N)NC(=O)[C@@H](Cc1ccc2ccccc2c1)NC(=O)[C@@H](N)Cc1c[nH]cn1)C(N)=O [Peptide 1, H-His-D(2′)Nal-Arg-Trp-Aib-Lys-Phe-Val-NH2] (HELM PEPTIDE1{H.[O=C([C@@H](Cc1ccc2ccccc2c1)N[*:1])[*:2]].R.W.[Aib].K.F.V.[am]}$$$$V2.0) | >100 | 97 (≈ 112 µg/mL) |  | did not show antimicrobial activity |  |
| CCC(CC)(NC(=O)[C@H](Cc1c[nH]c2ccccc12)NC(=O)[C@H](CCCNC(=N)N)NC(=O)[C@@H](Cc1ccc2ccccc2c1)NC(=O)[C@@H](N)Cc1c[nH]cn1)C(=O)N[C@@H](CCCCN)C(=O)N[C@@H](Cc1ccccc1)C(=O)N[C@H](C(N)=O)C(C)C [Peptide 2, H-His-D(2′)Nal-Arg-Trp-Deg-Lys-Phe-Val-NH2] (HELM PEPTIDE1{H.[O=C([C@@H](Cc1ccc2ccccc2c1)N[*:1])[*:2]].R.W.[CCC(CC)(N[*:1])C(=O)[*:2]].K.F.V.[am]}$$$$V2.0) | >100 | >100 | >100 | did not show antimicrobial activity |  |
| CC(C)[C@H](NC(=O)[C@H](Cc1ccccc1)NC(=O)[C@H](CCCCN)NC(=O)C1(NC(=O)[C@H](Cc2c[nH]c3ccccc23)NC(=O)[C@H](CCCNC(=N)N)NC(=O)[C@@H](Cc2ccc3ccccc3c2)NC(=O)[C@@H](N)Cc2c[nH]cn2)CCC1)C(N)=O [Peptide 5, H-His-D(2′)Nal-Arg-Trp-Ac4c -Lys-Phe-Val-NH2] (HELM PEPTIDE1{H.[O=C([C@@H](Cc1ccc2ccccc2c1)N[*:1])[*:2]].R.W.[O=C(C1(N[*:1])CCC1)[*:2]].K.F.V.[am]}$$$$V2.0) | >100 | 99 (≈ 115 µg/mL) |  | weak activity |  |
| CC(C)[C@H](NC(=O)[C@H](Cc1ccccc1)NC(=O)[C@H](CCCCN)NC(=O)C1(NC(=O)[C@H](Cc2c[nH]c3ccccc23)NC(=O)[C@H](CCCNC(=N)N)NC(=O)[C@@H](Cc2ccc3ccccc3c2)NC(=O)[C@@H](N)Cc2c[nH]cn2)CCCC1)C(N)=O [Peptide 6, H-His-D(2′)Nal-Arg-Trp-Ac5c-Lys-Phe-Val-NH2] (HELM PEPTIDE1{H.[O=C([C@@H](Cc1ccc2ccccc2c1)N[*:1])[*:2]].R.W.[O=C(C1(N[*:1])CCCC1)[*:2]].K.F.V.[am]}$$$$V2.0) | >100 | >100 |  | substantial activity |  |
| CC(C)[C@H](NC(=O)[C@H](Cc1ccccc1)NC(=O)[C@H](CCCCN)NC(=O)C1(NC(=O)[C@H](Cc2c[nH]c3ccccc23)NC(=O)[C@H](CCCNC(=N)N)NC(=O)[C@@H](Cc2ccc3ccccc3c2)NC(=O)[C@@H](N)Cc2c[nH]cn2)CCCCC1)C(N)=O [Peptide 7, H-His-D(2′)Nal-Arg-Trp-Ac6c -Lys-Phe-Val-NH2] (HELM PEPTIDE1{H.[O=C([C@@H](Cc1ccc2ccccc2c1)N[*:1])[*:2]].R.W.[O=C(C1(N[*:1])CCCCC1)[*:2]].K.F.V.[am]}$$$$V2.0) | >100 |  | 51 (≈ 60.9 µg/mL) | substantial activity |  |
| CC(C)[C@H](NC(=O)[C@H](Cc1ccccc1)NC(=O)[C@H](CCCCN)NC(=O)C1(NC(=O)[C@H](Cc2c[nH]c3ccccc23)NC(=O)[C@H](CCCNC(=N)N)NC(=O)[C@@H](Cc2ccc3ccccc3c2)NC(=O)[C@@H](N)Cc2c[nH]cn2)Cc2ccccc2C1)C(N)=O [Peptide 8, H-His-D(2′)Nal-Arg-Trp-Aic-Lys-Phe-Val-NH2] (HELM PEPTIDE1{H.[O=C([C@@H](Cc1ccc2ccccc2c1)N[*:1])[*:2]].R.W.[O=C(C1(N[*:1])Cc2ccccc2C1)[*:2]].K.F.V.[am]}$$$$V2.0) | 100 (≈ 123 µg/mL) |  |  |  | MIC 100 [2]: 12.5 µM (≈ 15.3 µg/mL); MIC 100 (Bacillus megaterium Bm11): 1.56 µM (≈ 1.91 µg/mL); MIC 100 (Escherichia coli D21): 12.5 µM (≈ 15.3 µg/mL); MIC 100 [3]: 50 µM (≈ 61.4 µg/mL); MIC 100 [4]: 25 µM (≈ 30.7 µg/mL); MIC 100 [5]: 12.5 µM (≈ 15.3 µg/mL); MIC 100 [6]: 6.25 µM (≈ 7.67 µg/mL); cell death / killing of human keratinocytes [7]: 50–100% |

Continued, in another order:

| MIC 90 (C. glabrata) [µM] | MIC 90 (C. krusei) [µM] | MIC 90 (C. albicans) [µM] | Compound | antimicrobial / anti-Candida activity (in words) [1] | further results |
| --- | --- | --- | --- | --- | --- |
| >100 | >100 | >100 | CC(C)[C@H](NC(=O)[C@H](Cc1ccccc1)NC(=O)[C@H](CCCCN)NC(=O)CCNC(=O)[C@H](Cc1c[nH]c2ccccc12)NC(=O)[C@H](CCCNC(=N)N)NC(=O)[C@@H](Cc1ccc2ccccc2c1)NC(=O)[C@@H](N)Cc1c[nH]cn1)C(N)=O [Peptide 11, H-His-D(2′)Nal-Arg-Trp-βAla-Lys-Phe-Val-NH2] (HELM PEPTIDE1{H.[O=C([C@@H](Cc1ccc2ccccc2c1)N[*:1])[*:2]].R.W.[bAla].K.F.V.[am]}$$$$V2.0) | no anti-Candida activity |  |
| >100 | >100 | >100 | CC(C)[C@H](NC(=O)[C@H](Cc1ccccc1)NC(=O)[C@H](CCCCN)NC(=O)[C@@H]1CCC[C@H]1NC(=O)[C@H](Cc1c[nH]c2ccccc12)NC(=O)[C@H](CCCNC(=N)N)NC(=O)[C@@H](Cc1ccc2ccccc2c1)NC(=O)[C@@H](N)Cc1c[nH]cn1)C(N)=O [Peptide 12, H-His-D(2′)Nal-Arg-Trp-Acpc-Lys-Phe-Val-NH2] (HELM PEPTIDE1{H.[O=C([C@@H](Cc1ccc2ccccc2c1)N[*:1])[*:2]].R.W.[O=C([C@@H]1CCC[C@H]1N[*:1])[*:2]].K.F.V.[am]}$$$$V2.0) | no anti-Candida activity |  |
| >100 | >100 | >100 | CC(C)[C@H](NC(=O)[C@H](Cc1ccccc1)NC(=O)[C@H](CCCCN)NC(=O)CNC(=O)CNC(=O)[C@H](Cc1c[nH]c2ccccc12)NC(=O)[C@H](CCCNC(=N)N)NC(=O)[C@@H](Cc1ccc2ccccc2c1)NC(=O)[C@@H](N)Cc1c[nH]cn1)C(N)=O [Peptide 13, H-His-D(2′)Nal-Arg-Trp-Gly-Gly-Lys-Phe-Val-NH2] (HELM PEPTIDE1{H.[O=C([C@@H](Cc1ccc2ccccc2c1)N[*:1])[*:2]].R.W.G.G.K.F.V.[am]}$$$$V2.0) | no activity |  |
